Measured values reported in patent publication US6599943B1, “Use of hydroxyguanidines” (WaPharm AB, priority 1996, dated 2003).

How the values were obtained:
Assay type in all cases: biochemical
[1] = tested on: rat spleen cytosol; experiment: Hydroxyguanidine reducing activity of spleen cytosol by radioligand binding assay; details: 70 μM guanoxabenz, 1 hr at 25° C.
Protocol: Assay of hydroxyguanidine reducing activity by radioligand binding. The assay is based on the possibility to measure the affinity of ligands to α2-adrenoceptors by using radioligand binding. In a typical experiment small aliquots of the sample to be measured is added to an assay containing membranes rich in α2-adrenoceptors as well as a suitable concentration of a radioligand capable of binding to α2-adrenoceptors. After the assay mixture has been incubated for a suitable time, to achieve equilibrium, the amount of radioligand bound to the membranes is measured by washing and filtering on GF/C glass fibre filters using methods that are well described in literature, and which are commonly referred to as radioligand binding. The ability of the hydroxyguanidine and its product to inhibit the binding of the radioligand to the α2-adrenoceptor constituted a measure of the hydroxyguanidine/guanidine activity of the reaction mixture. A preferred hydroxyguanidine is one which corresponding guanidine show substantially different affinity compared to the hydroxyguanidine itself. A most preferred example of such a hydroxyguanidine is guanoxabenz.
In a more more exact version of the assay the “apparent affinity” of the mixture of hydroxyguanidine and guanidine-product is measured by constructing a complete competition curve for each sample to be measured. This is achieved by adding different dilutions of the reaction mixture to the radioligand binding assay. Since the sum of the concentration of the hydroxyguanidine and the guanidine product is known, the “apparent affinity” of the mixture can be calculated from the radioligand binding data using standard procedures for radioligand binding data analysis (Uhlén and Wikberg,1991). For the purpose of the present studies the apparent affinity of the reaction mixture was estimated from competition data by using a radioligand binding analysis computer software package (Wan System AB, Trillvägen 13, S-905 92 Umeå, Sweden). The fraction (q) of guanidine product obtained is then given by: [formula] […]

[2] = molecular target: T1, bovine milk xanthine oxidase (Bos taurus, UniProt P80457); experiment: Hydroxyguanidine reducing activity of bovine xanthine oxidase, simplified radioligand binding assay; details: 100 μM xanthine versus xanthine absent
Protocol: (§1) In a simplified form of the assay the α2-adrenoceptor containing membranes and the [^3H]RX821002 radioligand were added together with the hydroxyguanidine reducing activity and the hydroxyguanidine, and the mixture then incubated for a suitable time. In this implementation of the assay the reduction of the hydroxyguanidine occurred simultaneously with the assay of the […]. Example of this variant of the assay is given in Examples 4 and 8.
(§2) Hydroxyguanidine reducing activity of bovine xanthine oxidase.
Target sequence in this assay (P80457 2-1332): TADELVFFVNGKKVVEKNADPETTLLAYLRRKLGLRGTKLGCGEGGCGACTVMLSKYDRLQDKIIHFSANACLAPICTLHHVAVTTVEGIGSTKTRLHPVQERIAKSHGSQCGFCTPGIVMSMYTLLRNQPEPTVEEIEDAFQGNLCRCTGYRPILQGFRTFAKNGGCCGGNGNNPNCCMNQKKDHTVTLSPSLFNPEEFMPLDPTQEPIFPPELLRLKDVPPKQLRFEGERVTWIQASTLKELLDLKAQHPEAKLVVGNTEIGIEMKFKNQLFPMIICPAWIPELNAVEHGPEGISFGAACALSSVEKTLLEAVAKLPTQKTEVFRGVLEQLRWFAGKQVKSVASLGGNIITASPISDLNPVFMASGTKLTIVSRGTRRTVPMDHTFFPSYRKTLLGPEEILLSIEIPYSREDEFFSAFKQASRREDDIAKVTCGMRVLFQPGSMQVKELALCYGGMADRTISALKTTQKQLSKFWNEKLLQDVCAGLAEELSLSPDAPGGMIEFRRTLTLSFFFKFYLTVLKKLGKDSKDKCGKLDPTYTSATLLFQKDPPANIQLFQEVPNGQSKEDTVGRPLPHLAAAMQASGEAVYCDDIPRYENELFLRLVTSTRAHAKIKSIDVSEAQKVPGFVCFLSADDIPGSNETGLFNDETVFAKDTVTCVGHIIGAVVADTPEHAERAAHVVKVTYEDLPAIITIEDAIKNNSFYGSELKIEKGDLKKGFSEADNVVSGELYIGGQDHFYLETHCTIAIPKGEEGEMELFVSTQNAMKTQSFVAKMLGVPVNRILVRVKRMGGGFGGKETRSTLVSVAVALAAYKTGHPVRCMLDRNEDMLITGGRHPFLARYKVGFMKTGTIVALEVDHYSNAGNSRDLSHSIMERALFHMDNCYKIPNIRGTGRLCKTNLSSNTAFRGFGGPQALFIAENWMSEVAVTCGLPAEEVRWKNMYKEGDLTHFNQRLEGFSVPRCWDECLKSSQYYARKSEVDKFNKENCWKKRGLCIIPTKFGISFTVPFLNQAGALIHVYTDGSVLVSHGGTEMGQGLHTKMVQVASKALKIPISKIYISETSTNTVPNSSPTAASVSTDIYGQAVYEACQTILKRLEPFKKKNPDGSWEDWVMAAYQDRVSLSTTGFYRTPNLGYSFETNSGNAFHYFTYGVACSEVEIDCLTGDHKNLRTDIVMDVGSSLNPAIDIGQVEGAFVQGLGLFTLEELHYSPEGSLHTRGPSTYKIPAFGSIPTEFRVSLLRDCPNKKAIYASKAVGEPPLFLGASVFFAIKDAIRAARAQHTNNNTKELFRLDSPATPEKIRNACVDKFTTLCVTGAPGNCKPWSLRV

[3] = tested on: bovine milk xanthine oxidase; experiment: as above
Protocol: as §1, §2

[4] = molecular target: xanthine oxidase (Bos taurus, UniProt P80457); experiment: Inhibition of superoxide radical formation by xanthine oxidase, EPR with DMPO; details: 100 μM guanoxabenz, 100 μM xanthine, 0.04 units/ml xanthine oxidase, 50 μM DMPO
xanthine oxidase, sequence (P80457 whole entry): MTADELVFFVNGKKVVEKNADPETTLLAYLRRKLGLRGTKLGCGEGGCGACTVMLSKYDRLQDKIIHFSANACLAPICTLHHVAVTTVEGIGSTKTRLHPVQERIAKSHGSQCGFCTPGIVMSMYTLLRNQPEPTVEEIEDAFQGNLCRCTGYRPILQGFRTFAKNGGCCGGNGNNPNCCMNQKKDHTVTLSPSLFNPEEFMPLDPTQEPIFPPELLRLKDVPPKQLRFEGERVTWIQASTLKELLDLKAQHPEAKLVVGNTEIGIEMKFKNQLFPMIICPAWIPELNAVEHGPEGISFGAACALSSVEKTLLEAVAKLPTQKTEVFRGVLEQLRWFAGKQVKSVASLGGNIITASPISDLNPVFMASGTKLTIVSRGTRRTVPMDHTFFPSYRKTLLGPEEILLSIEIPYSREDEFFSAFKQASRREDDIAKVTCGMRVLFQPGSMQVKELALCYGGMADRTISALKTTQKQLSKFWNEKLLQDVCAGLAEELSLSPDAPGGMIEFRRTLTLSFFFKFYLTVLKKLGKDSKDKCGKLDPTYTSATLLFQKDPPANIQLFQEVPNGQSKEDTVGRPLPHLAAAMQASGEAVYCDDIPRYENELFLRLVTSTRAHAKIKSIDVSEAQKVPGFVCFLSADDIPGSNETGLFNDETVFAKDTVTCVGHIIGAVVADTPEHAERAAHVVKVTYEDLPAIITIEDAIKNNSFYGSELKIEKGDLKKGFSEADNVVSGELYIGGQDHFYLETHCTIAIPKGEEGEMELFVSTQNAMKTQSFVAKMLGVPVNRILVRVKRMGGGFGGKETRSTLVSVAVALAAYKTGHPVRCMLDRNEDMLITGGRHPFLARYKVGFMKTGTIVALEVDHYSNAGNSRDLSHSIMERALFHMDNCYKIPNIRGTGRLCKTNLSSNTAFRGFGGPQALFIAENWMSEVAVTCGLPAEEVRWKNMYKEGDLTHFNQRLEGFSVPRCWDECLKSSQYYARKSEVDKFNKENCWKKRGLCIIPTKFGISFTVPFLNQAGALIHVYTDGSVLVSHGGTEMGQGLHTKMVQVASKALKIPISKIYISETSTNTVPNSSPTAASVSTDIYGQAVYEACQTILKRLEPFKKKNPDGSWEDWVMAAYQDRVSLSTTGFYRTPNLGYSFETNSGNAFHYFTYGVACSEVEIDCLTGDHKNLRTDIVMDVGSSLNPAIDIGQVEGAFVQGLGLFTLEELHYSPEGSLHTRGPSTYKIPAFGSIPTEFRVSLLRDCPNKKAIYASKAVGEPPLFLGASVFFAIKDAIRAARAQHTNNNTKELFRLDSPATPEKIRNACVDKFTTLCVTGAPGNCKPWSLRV
Protocol: Capacity of hydroxyguanidines to inhibit the formation of superoxide radicals by xanthine oxidase in the presence of oxygen. The detection of the spin adducts of superoxide formed by xanthine oxidase and xanthine reaction was performed by using a Bruker ER200D-SRC EPR spectrometer equipped with an ER4105ST double cavity and the spin trap agent DMPO, by essentially using the approach described by Britigan et al. (1990). In brief, reaction mixtures of total volumes of 0.5 ml were prepared by adding to a plastic tubes, in the listed order, reagents that gave final concentrations as follows: 50 mM Tris HCl, 1.5 mM EDTA, 100 μM xanthine, 100 μM guanoxabenz, 0.04 units/ml xanthine oxidase and 50 μM DMPO, pH 7.5. As a control served an identical reaction mixture except that guanoxabenz had been omitted. The solutions were immediately transferred to standard flat cells for aqueous samples and spectra were recorded at room temperature. Spectrometer settings were as follows: microwave power 3.99 mW; modulation amplitude 1.028 G; time constant 10.24 ms; modulation frequency 100 kHz; receiver gain, 5×10^4. In FIG. 6 is shown an exemplary recording from these tests. […] This additional signal was due to a contaminant corresponding to “nitric oxide” that was released from the disposable laboratory plastic used in the preparation of the samples (see Buettner et al., 1991).

[5] = molecular target: T1, bovine milk xanthine oxidase; experiment: Capacity to sustain oxidation of xanthine by xanthine oxidase in the absence of oxygen, spectrophotometric; set-up: host or cells: bovine milk; details: 50 μM hydroxyguanidine, 50 μM xanthine, 0.05 units/ml xanthine oxidase, anaerobic, pH 7.5, 20° C., blank subtracted
Protocol: Capacities of a series of hydroxyguanidine to sustain the oxidation of xanthine by xanthine oxidase in the absence of oxygen. The capacities of various hydroxyguanidines to sustain the oxidation of xanthine was assayed by using a spectrophotometric method. In this method bovine milk xanthine oxidase was injected to a Helma® sealable cuvette for anaerobic application thereby creating 1 ml of a reaction mixture that contained reagents as follows: 50 μM of a hydroxyguanidine, 50 μM xanthine, 0.05 units/ml bovine milk xanthine oxidase, 50 mM Tris and 1.5 mM EDTA; the pH of the reaction mixture being 7.5, and the temperature 20° C. Anaerobic conditions were assured by pre-gassing all solutions used for 5-10 min, with nitrogen. The rate of formation of uric acid was monitored spectrophotometrically by measuring the increase in absorbance at 295 nm (the absorption maximum for uric acid) at intervals. The relative capacities of the hydroxyguanidines to sustain oxidation of xanthine were estimated from the derivative of the initial linear phase of the curves. To obtain blank readings an equal volume of the solvent of the hydroxyguanidine (water) was added to the reaction mixture in separate experiments and the initial rate of absorbance change was substracted from the rate readings of the tested hydroxyguanidine.
Exemplary initial rates for the rate of the support of the oxidation of xanthine obtained by assaying the exemplary hydroxyguanidines listed above by the method in the present example are furthermore given in Table 2: […]
Target sequence in this assay (P80457 whole entry): as above

concentration of guanabenz in the sample [1]: 17.5 µM
conversion of guanoxabenz to guanabenz [1]: 25%
q (fraction of guanidine product) [1]: 0.25
increase in the apparent affinity on addition of xanthine [2]: about 40 fold
guanoxabenz converted to guanabenz ([3]; in the absence of xanthine): none
conversion of guanoxabenz to guanabenz ([3]; in the presence of xanthine): about 88%
reduction of the superoxide signal (EPR) [4]: about 60%
V = 1000 × (Δabs 295 nm) min^−1 (initial rate of the support of the oxidation of xanthine) [5]: 40 1000 × (Δabs 295 nm) min^−1
SMILES: N=C(NO)NN=Cc1c(Cl)cccc1Cl [Guanoxabenz, 2(2,6-dichlorophenyl)methylene-N-hydroxyhydrazine carboxi-imidamide]
